Consider eight molecules from paper PMC12368987 (2025).

For assay [1], the system named is PFOS_JYP_2 (DNA, aptamer) CTCTCGGGACGACGGGGTAACGGTTTGATCTCCTTCGTGTTCTGTCGTCCC
Briefly: ThT displacement fluorescence. The note with it: pH 7.5; 400 nM aptamer, 10 μM thioflavin T; up to 50 μM.

The subject of assay [2] is 16T (upper small loop without 16th thymine) (DNA, aptamer) AACGGTTTGATCTCCTCGTG
Briefly: ThT displacement fluorescence. Particulars: pH 7.5; 400 nM aptamer, 10 μM thioflavin T; up to 50 μM.

Assay [3] concerns PFOS_JYP_2 with flanking region shortened to 4 base pairs (DNA, aptamer) CGACGGGGTAACGGTTTGATCTCCTTCGTGTTCTGTCG
As to the kind of experiment: ThT displacement fluorescence. Particulars: different PFOS concentrations; highest not stated in material.

Assay [4] deals with PFOS_JYP_1 (DNA, aptamer) CTCTCGGGACGACGGGTAGTCTGTGTATGCTCGCAAGCGTGCTGTCGTCCC
Briefly: ThT displacement fluorescence, Hill fit. The note with it: pH 7.5, RT, 70 min; 400 nM aptamer; 10 μM thioflavin T displaced.

For assay [5], the system named is PFOS_JYP_2 (DNA, aptamer) CTCTCGGGACGACGGGGTAACGGTTTGATCTCCTTCGTGTTCTGTCGTCCC
Briefly: ThT displacement fluorescence, Hill fit. Particulars: pH 7.5, RT, 70 min; 400 nM aptamer; 10 μM thioflavin T displaced.

Assay [6] relates to PFOS_JYP_3 (DNA, aptamer) CTCTCGGGACGACGGGGGTTGCATCTTTATATGTTTCTTCTCTGTCGTCCC
Briefly: ThT displacement fluorescence, Hill fit. The note with it: pH 7.5, RT, 70 min; 400 nM aptamer; 10 μM thioflavin T displaced.

For assay [7], the system named is PFOS_JYP_4 (DNA, aptamer) CTCTCGGGACGACGGGGGGCTATTTCTTCATTCTCTGCTGACTGTCGTCCC
Briefly: ThT displacement fluorescence, Hill fit. The note with it: pH 7.5, RT, 70 min; 400 nM aptamer; 10 μM thioflavin T displaced.

Assay [8] deals with PFOS_JYP_5 (DNA, aptamer) CTCTCGGGACGACGGCCAGATGGAGCTTTTATTTCCCTTCCTCGTCGTCCC
Briefly: ThT displacement fluorescence, Hill fit. The note with it: pH 7.5, RT, 70 min; 400 nM aptamer; 10 μM thioflavin T displaced.

In assay [9] the test system is PFOS_JYP_6 (DNA, aptamer) CTCTCGGGACGACGGCAGCTCAGCATCTTTGTTGCCCCTGACTGTCGTCCC
As to the kind of experiment: ThT displacement fluorescence, Hill fit. Particulars: pH 7.5, RT, 70 min; 400 nM aptamer; 10 μM thioflavin T displaced.

Assay [10] deals with PFOS_JYP_7 (DNA, aptamer) CTCTCGGGACGACCACCAGGTCTCGTCTTATTGGCTATGTGTTGTCGTCCC
Briefly: ThT displacement fluorescence, Hill fit. Particulars: pH 7.5, RT, 70 min; 400 nM aptamer; 10 μM thioflavin T displaced.

Assay [11] deals with upper small loop of PFOS_JYP_2 (DNA, aptamer) AACGGTTTGATCTCCTTCGTG
As to the kind of experiment: ThT displacement fluorescence, Hill fit. The note with it: pH 7.5, RT, 70 min; 400 nM aptamer; 10 μM thioflavin T displaced.

Assay [12] relates to 16T (upper small loop without 16th thymine) (DNA, aptamer) AACGGTTTGATCTCCTCGTG
As to the kind of experiment: ThT displacement fluorescence, Hill fit. The note with it: pH 7.5, RT, 70 min; 400 nM aptamer; 10 μM thioflavin T displaced.

Assay [13] concerns 7T (upper small loop without 7th thymine) (DNA, aptamer) AACGGTTGATCTCCTTCGTG
Briefly: ThT displacement fluorescence, Hill fit. The note with it: pH 7.5, RT, 70 min; 400 nM aptamer; 10 μM thioflavin T displaced.

For assay [14], the system named is 9G (upper small loop without 9th guanine) (DNA, aptamer) AACGGTTTATCTCCTTCGTG
As to the kind of experiment: ThT displacement fluorescence, Hill fit. Particulars: pH 7.5, RT, 70 min; 400 nM aptamer; 10 μM thioflavin T displaced.

Assay [15] has as its system 10A (upper small loop without 10th adenine) (DNA, aptamer) AACGGTTTGTCTCCTTCGTG
Briefly: ThT displacement fluorescence, Hill fit. Particulars: pH 7.5, RT, 70 min; 400 nM aptamer; 10 μM thioflavin T displaced.

The test system of assay [16] is 11T (upper small loop without 11th thymine) (DNA, aptamer) AACGGTTTGACTCCTTCGTG
As to the kind of experiment: ThT displacement fluorescence, Hill fit. Particulars: pH 7.5, RT, 70 min; 400 nM aptamer; 10 μM thioflavin T displaced.

Assay [17] deals with 15C (upper small loop without 15th cytosine) (DNA, aptamer) AACGGTTTGATCTCTTCGTG
Briefly: ThT displacement fluorescence, Hill fit. The note with it: pH 7.5, RT, 70 min; 400 nM aptamer; 10 μM thioflavin T displaced.

For assay [18], the system named is 7T, 16T (DNA, aptamer) AACGGTTGATCTCCTCGTG
As to the kind of experiment: ThT displacement fluorescence, Hill fit. Particulars: pH 7.5, RT, 70 min; 400 nM aptamer; 10 μM thioflavin T displaced.

For assay [19], the system named is 9G, 16T (DNA, aptamer) AACGGTTTATCTCCTCGTG
Briefly: ThT displacement fluorescence, Hill fit. The note with it: pH 7.5, RT, 70 min; 400 nM aptamer; 10 μM thioflavin T displaced.

For assay [20], the system named is 10A, 16T (DNA, aptamer) AACGGTTTGTCTCCTCGTG
As to the kind of experiment: ThT displacement fluorescence, Hill fit. Particulars: pH 7.5, RT, 70 min; 400 nM aptamer; 10 μM thioflavin T displaced.

Assay [21] concerns 11T, 16T (DNA, aptamer) AACGGTTTGACTCCTCGTG
As to the kind of experiment: ThT displacement fluorescence, Hill fit. Particulars: pH 7.5, RT, 70 min; 400 nM aptamer; 10 μM thioflavin T displaced.

The test system of assay [22] is 15C, 16T (DNA, aptamer) AACGGTTTGATCTCTCGTG
Briefly: ThT displacement fluorescence, Hill fit. The note with it: pH 7.5, RT, 70 min; 400 nM aptamer; 10 μM thioflavin T displaced.

Assay [23] has as its system PFOS_JYP_2 upper loop, ninth guanine mutated to cytosine (DNA, aptamer) AACGGTTTCATCTCCTTCGTG
As to the kind of experiment: ThT displacement fluorescence, Hill fit. The note with it: pH 7.5, RT, 70 min; 400 nM aptamer; 10 μM thioflavin T displaced.

For assay [24], the system named is PFOS_JYP_6 (72 nt, qPCR) (DNA, aptamer) GGAGGCTCTCGGGACGACGGCAGCTCAGCATCTTTGTTGCCCCTGACTGTCGTCCCGATGCTGCAATCGTAA
Briefly: qPCR Ct change of aptamer-gold nanoparticle complex. Particulars: Mg2+ 2 mM (PBS); 1x PBS, pH 7.5; 100 pmol aptamer; 0-400 pM PFOS.

As to `CCCCCCCCS(=O)(=O)O`, the binding result in assay [1] is “no”.
Still for that read-out and setting: the entry for `O=C(O)C(F)(F)C(F)(F)C(F)(F)C(F)(F)C(F)(F)C(F)(F)C(F)(F)C(F)(F)C(F)(F)F` is “weak”.
For `O=C(O)C(F)(F)C(F)(F)C(F)(F)C(F)(F)C(F)(F)C(F)(F)C(F)(F)C(F)(F)F`, the binding result in assay [1] and in [2] was “weak” each time.
As for `O=C(O)C(F)(F)C(F)(F)C(F)(F)C(F)(F)C(F)(F)C(F)(F)C(F)(F)F`, the binding result in [1] and in [2] was “weak” in each case.
Regarding `O=C(O)C(F)(F)C(F)(F)C(F)(F)F`, in assay [1], the binding entry is reported as “no”.
On to `O=S(=O)(O)C(F)(F)C(F)(F)C(F)(F)C(F)(F)C(F)(F)C(F)(F)C(F)(F)C(F)(F)F`, for which the results for the binding result in [3] and in [24] were “no” and “yes”, respectively. Further, the KD in assay [4] is 6.93 ± 0.15 µM; in assay [5], 6.76 ± 0.20 µM; in [6] it was 7.82 ± 0.19 µM; in assay [7], 6.87 ± 0.06 µM; in [8], 7.33 ± 0.21 µM; in [9], 7.69 ± 0.04 µM. Further, the dissociation constant (KD) in [10] was determined as 8.42 ± 0.34 µM; in assay [11], 11.21 ± 0.16 µM; in assay [12], 6.77 ± 0.16 µM; in assay [13] it was 7.99 ± 0.50 µM; in [14] it was 8.86 ± 0.53 µM; in assay [15], 8.30 ± 0.65 µM. Moreover, the KD in assay [16] was 8.60 ± 0.27 µM; in [17], 7.57 ± 0.12 µM; in assay [18], 7.97 ± 0.49 µM; in assay [19], 7.35 ± 0.42 µM; in assay [20], 8.19 ± 0.04 µM; in [21], 8.82 ± 0.37 µM. Further, the KD amounted to 7.86 ± 0.18 µM in assay [22] and 18.23 ± 1.92 µM in [23].
`O=S(=O)(O)C(F)(F)C(F)(F)C(F)(F)C(F)(F)C(F)(F)C(F)(F)F`: the binding entry in [1] and in assay [2] was “weak” throughout.
For the molecule `O=S(=O)(O)C(F)(F)C(F)(F)C(F)(F)C(F)(F)F`, in assay [1], the binding result was “no”.
